The test system of data set [1] is HBV. In words: Anti-HBV activity: intracellular HBV DNA by real-time PCR in HepG2.117 cell line. It counts as cell-based, Hepatitis B virus. As to conditions: Hepatitis B virus, 72 h; HepG2.117 cells, 3 days of treatment, intracellular HBV DNA by real-time PCR, mean value; read-out: HBV-AVE-HepG2.117 EC50 (μM, mean value). How it is done:
The anti HBV activity was measured using the HepG2.117 cell line, a stable, inducibly HBV producing cell line, which replicates HBV in the absence of doxicycline (Tet-off system). The HepG2 cell line is available from ATCC® under number HB-8065. Transfection of the HepG2 cell line can be as described in Sun and Nassal 2006 Journal of Hepatology 45 (2006) 636-645 “Stable HepG2- and Huh7-based human hepatoma cell lines for efficient regulated expression of infectious hepatitis B virus”.
For the antiviral assay, HBV replication was induced, followed by a treatment with serially diluted compound in 96-well plates. After 3 days of treatment, the antiviral activity was determined by quantification of intracellular HBV DNA using real-time PCR and an HBV specific primer set and probe.

Data set [2] is described as follows: Cytotoxicity in HepG2.117 cells, ATPlite Luminescence Assay. The data set is classed as cell-based, human. The settings on record: human, incubated for 3 days, mean value, read-out: TOX-HepG2.117 CC50 (μM, mean value). How it is done: Cytotoxicity of the compounds was tested using HepG2 or HepG2.117 cells, incubated for 3 days in the presence of compounds. The viability of the cells was assessed using the PERKIN ELMER ATPlite Luminescence Assay System.”

`C[C@@H]1Cc2nn3c(c2CN1C(=O)c1ccc(Cl)c(Cl)c1)C(=O)N([C@H](C)c1ccc(C#N)cc1)CC3` (relative stereo) [C88*R]: the EC50 in data set [1] was 0.076 µM. Further, in data set [2], the CC50 at 3 days was more than 50 µM.

For the compound `C[C@@H]1Cc2nn3c(c2CN1C(=O)c1ccc(Cl)c(Cl)c1)C(=O)N([C@@H](C)c1ccc(C#N)cc1)CC3` (relative stereo) [C88*S], the EC50 in data set [1] worked out at 0.023 µM. Further, the CC50 at 3 days in data set [2] was more than 50 µM.

Take `C[C@@H]1Cc2nn3c(c2CN1C(=O)c1ccc(Cl)c(Cl)c1)C(=O)N([C@H](C)c1ccc(C(F)(F)F)cc1)CC3` (relative stereo) [C105*R]: the EC50 in data set [1] was 0.059 µM. In addition, the CC50 at 3 days in data set [2] was found to be 14.6 µM.

Regarding `C[C@@H]1Cc2nn3c(c2CN1C(=O)c1ccc(Cl)c(Cl)c1)C(=O)N([C@@H](C)c1ccc(C(F)(F)F)cc1)CC3` (relative stereo) [C105*S], the EC50 in data set [1] is 0.297 µM. Also, the CC50 at 3 days in data set [2] is more than 50 µM.

For `C[C@@H]1Cc2nn3c(c2CN1C(=O)c1ccc(Cl)c(Cl)c1)C(=O)N([C@@H](C)c1ccccc1C(F)(F)F)CC3` (relative stereo) [C123*R], in data set [1], the concentration giving a half-maximal response (EC50) is 0.174 µM. For the same compound, in data set [2], the CC50 at 3 days was found to be 20 µM.

With `C[C@@H]1Cc2nn3c(c2CN1C(=O)c1ccc(Cl)c(Cl)c1)C(=O)N([C@H](C)c1ccccc1C(F)(F)F)CC3` (relative stereo) [C123*S], the EC50 in data set [1] came out at 0.517 µM. In addition, the CC50 at 3 days in data set [2] came out at 19.2 µM.

As to `C[C@@H]1Cc2nn3c(c2CN1C(=O)c1ccc(Cl)c(Cl)c1)C(=O)N([C@H](C)c1c[nH]nn1)CC3` (single isomer, unassigned) [Compound 31, (3R)-2-(3,4-Dichlorobenzoyl)-3-methyl-9-[(1*R)-1-(1H-1,2,3-triazol-4-yl)ethyl]-1,2,3,4,8,9-hexahydropyrido[4′,3′:3,4]pyrazolo[1,5-a]pyrazin-10(7H)-one], the EC50 in data set [1] was 0.075 µM. Also, in data set [2], the CC50 at 3 days was more than 50 µM.

With `C[C@@H]1Cc2nn3c(c2CN1C(=O)c1ccc(Cl)c(Cl)c1)C(=O)N([C@@H](C)c1c[nH]nn1)CC3` (single isomer, unassigned) [Compound 32, (3R)-2-(3,4-Dichlorobenzoyl)-3-methyl-9-[(1*S)-1-(1H-1,2,3-triazol-4-yl)ethyl]-1,2,3,4,8,9-hexahydropyrido[4′,3′:3,4]pyrazolo[1,5-a]pyrazin-10(7H)-one], the EC50 in data set [1] was 0.332 µM. Besides, the CC50 at 3 days in data set [2] was more than 50 µM.

For `CN1O[C@@H](CO)Cn2nc3c(c2C1=O)CN(C(=O)c1ccc(Cl)c(Cl)c1)CC3` (single isomer, unassigned) [Compound 45, (4*R)-10-(3,4-Dichlorobenzoyl)-4-(hydroxymethyl)-2-methyl-4,5,8,9,10,11-hexahydropyrido-[4′,3′:3,4]pyrazolo[5,1-d][1,2,5]oxadiazepin-1(2H)-one], in data set [1], the EC50 was 0.192 µM. Moreover, the CC50 at 3 days in data set [2] was more than 50 µM.

For `C[C@@H]1Cc2nn3c(c2CN1C(=O)c1ccc(Cl)c(Cl)c1)C(=O)N(Cc1ccc(OC(F)F)cc1)CC3` [Compound 13, (3R)-2-(3,4-Dichlorobenzoyl)-9-{[4-(difluoromethoxy)phenyl]methyl}-3-methyl-1,2,3,4,8,9-hexahydropyrido[4′,3′:3,4]pyrazolo[1,5-a]pyrazin-10(7H)-one], the EC50 in data set [1] is 0.055 µM.

On to `C[C@@H]1Cc2nn3c(c2CN1C(=O)c1ccc(Cl)c(Cl)c1)C(=O)N(Cc1cccc2c1ccn2C)CC3` [Example C120], for which, in data set [1], the EC50 was found to be 0.047 µM.

Turning to `COc1ccc(CN2CCn3nc4c(c3C2=O)CN(C(=O)c2ccc(Cl)c(Cl)c2)[C@H](C)C4)cc1F` [Example C140], in data set [1], the EC50 came out at 0.032 µM.

Take `COc1cc(CN2CCn3nc4c(c3C2=O)CN(C(=O)c2ccc(Cl)c(Cl)c2)[C@H](C)C4)ccc1OC(F)F` [Example C205]: in data set [1], the EC50 stood at 0.04 µM.

Turning to `Cc1ccc(CN2CCn3nc4c(c3C2=O)CN(C(=O)c2ccc(Cl)c(Cl)c2)[C@H](C)C4)c(F)c1` [Example C206], in data set [1], the EC50 came out at 0.038 µM.

For the origin of these results see US20220348592A1, “FUSED HETEROCYCLIC DERIVATIVES” (Janssen Sciences Ireland Unlimited Company, priority 2019, published 2022).
